Data on 18 compounds can be found in patent US7385026B1, “Modified ghrelin polypeptides” (priority 1999, dated 2008).

SMILES strings stand for the structures. Square brackets hold non-standard residues; d marks the D form. Peptide text beside a SMILES is read from it. * marks the point of attachment. Octanoyl = CCCCCCCC(=O)*; Aib = CC(C)(N)C(=O)O; Octyl = CCCCCCCC*

For one experiment, the target named is T1, rat GHS-receptor (GHR-R) (Rattus norvegicus, UniProt O08725).
T1 construct: A full-length cDNA for rat GHR-R was obtained by RT-PCR; expressed in transfected cells
T1 sequence (O08725 whole entry): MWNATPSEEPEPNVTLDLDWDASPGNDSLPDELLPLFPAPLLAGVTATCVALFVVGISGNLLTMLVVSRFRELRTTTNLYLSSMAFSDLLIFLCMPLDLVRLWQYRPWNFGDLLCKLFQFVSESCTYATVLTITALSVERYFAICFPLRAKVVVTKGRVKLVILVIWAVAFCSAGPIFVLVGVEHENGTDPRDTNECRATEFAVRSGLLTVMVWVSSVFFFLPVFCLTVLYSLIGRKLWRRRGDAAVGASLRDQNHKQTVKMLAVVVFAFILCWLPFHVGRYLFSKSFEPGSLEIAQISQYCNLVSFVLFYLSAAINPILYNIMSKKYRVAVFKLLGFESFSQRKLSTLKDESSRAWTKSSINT
The experiment can be described thus: Ca-releasing activity (increase in intracellular calcium) in CHO-GHSR62 cells, FLIPR. In kind it is cell-based.
Details: not given
From the text:
To assay an increase in the intracellular calcium ion concentration (Ca-releasing activity) occurring upon binding of a GH secretagogue (GHS) to GHS-receptor (GHR-R), a cell strain expressing rat GHR-R was created in the following manner. A full-length cDNA for rat GHR-R was obtained by RT-PCR (reverse transcriptase-polymerase chain reaction) where a cDNA derived from rat brain was used as template. From the nucleotide sequence of known rat GHR-R [K. K. Mckee, et al, Molecular Endocrinology 11, 415-423 (1997)], sense and antisense primers consisting of the following nucleotide sequences were synthesized.
The amplified cDNA was ligated to vector pcDNAIII (Invitrogen) to construct expression vector GHSR-pcDNAIII. CHO cells were transformed via the expression vector, and the transformed cells stably expressing GHR-R were selected in a medium containing 1 μg/ml G418. […] A change in the intracellular calcium ion concentration (Ca-releasing activity) was measured by an FLIPR system (Molecular Device). Before this measurement, 4×10^4 CHO-GHSR62 cells were put to a 96-well microplate with black wall (Corning Co., Ltd) and cultured for 12 to 15 hours. Then, the cells were incubated with 4 μM fluorescent Fluo4 (Molecular Probe Co., Ltd) for 1 hour and washed four times with Hank's BSS (Hank's Balanced Salt Solution) containing 20 mM Hepes ([N-2-hydroxyethyl]-piperazine-N-[2-ethanesulfonic acid]) and 2.5 mM probenecid, and the Ca-releasing activity was assayed by adding a sample and measuring a change in the fluorescence.
Peptide fragments obtained by partially digested the rat- and human-derived ghrelins by various proteases, or chemically synthesized peptides, were examined for their Ca releasing activity in order to determine a core amino acid sequence and the optimum chain length of a modifying fatty acid necessary for Ca-releasing activity.
The Ca-increasing activities of the ghrelin derivative peptide-type compounds synthesized in Example 10 and the natural ghrelin peptide were measured in the same manner as in Example 1.
In this examination, the intracellular Ca-releasing activity in CHO cells expressing rat GSH receptor was used as the indicator.
Regarding `CCCCCCCC(=O)OC[C@H](NC(=O)[C@H](CO)NC(=O)CN)C(=O)N[C@@H](Cc1ccccc1)C(N)=O` [Compound 33-2, Ghrelin (1-4)-amide] (H-GSS(Octanoyl)F-NH2), the “Ca-releasing activity of ghrelin (1-4) after amidation relative to before amidation” value is “about 3 times”.

Still in this experiment, the particulars now being: CHO-GHSR62 cells (CHO cells expressing rat GHS receptor), FLIPR; read-out: Ca-releasing activity EC50.
Take `CC(C)C[C@H](NC(=O)[C@H](CCCCN)NC(=O)[C@H](C)NC(=O)[C@@H]1CCCN1C(=O)[C@@H]1CCCN1C(=O)[C@H](CCCCN)NC(=O)[C@H](CCCCN)NC(=O)[C@H](CO)NC(=O)[C@H](CCC(=O)O)NC(=O)[C@H](CCCCN)NC(=O)[C@H](CCCNC(=N)N)NC(=O)[C@H](CCC(N)=O)NC(=O)[C@H](CCC(N)=O)NC(=O)[C@@H](NC(=O)[C@H](CCCNC(=N)N)NC(=O)[C@H](CCC(N)=O)NC(=O)[C@H](Cc1c[nH]cn1)NC(=O)[C@H](CCC(=O)O)NC(=O)[C@@H]1CCCN1C(=O)[C@H](CO)NC(=O)[C@H](CC(C)C)NC(=O)[C@H](Cc1ccccc1)NC(=O)[C@@H](NC(=O)[C@H](CO)NC(=O)CN)C(C)C)C(C)C)C(=O)N[C@@H](CCC(N)=O)C(=O)N1CCC[C@H]1C(=O)N[C@@H](CCCNC(=N)N)C(=O)O` [Compound 74, [Val^3]-hGhrelin]: the EC50 was 1600 nM.
As to `CCCCCCCC(=O)OC[C@H](NC(=O)[C@H](CO)NC(=O)CNC(C)=O)C(=O)N[C@@H](Cc1ccccc1)C(=O)N[C@@H](CC(C)C)C(=O)N[C@@H](CO)C(=O)N1CCC[C@H]1C(=O)N[C@@H](CCC(=O)O)C(=O)N[C@@H](Cc1c[nH]cn1)C(=O)N[C@@H](CCC(N)=O)C(=O)O` [Compound 41, [N-Acetyl]-Ghrelin (1-10)], the EC50 is over 10000 nM.
Take `CCCCCCCC(=O)OC[C@H](NC(=O)[C@H](CC(C)C)NC(=O)CN)C(=O)N[C@@H](Cc1ccccc1)C(=O)N[C@@H](CC(C)C)C(=O)N[C@@H](CO)C(=O)N1CCC[C@H]1C(N)=O` [Compound 44, [Leu^2]-Ghrelin (1-7)-amide] (H-GLS(Octanoyl)FLSP-NH2): the EC50 is 42 nM.
For `CCCCCCCCOC[C@H](NC(=O)[C@H](CO)NC(=O)CN)C(=O)N[C@@H](Cc1ccccc1)C(=O)N[C@@H](CC(C)C)C(=O)N[C@@H](CO)C(=O)N1CCC[C@H]1C(N)=O` [Compound 50, [Ser^3(Octyl)]-Ghrelin (1-7)-amide], the EC50 was found to be 5.8 nM.
In the case of `CCCCCCCCOC[C@H](NC(=O)[C@H](Cc1c[nH]cn1)NC(=O)C(C)(C)N)C(=O)N[C@@H](Cc1ccccc1)C(=O)N[C@@H](CCCCN)C(N)=O` [Compound 78, [Aib^1, His^2, Ser^3(Octyl), Lys^5]-Ghrelin (1-5)-amide] (H-[Aib]HS(Octyl)FK-NH2), the EC50 was found to be 34 nM.
Turning to `CCCCCCCCOC[C@H](NC(=O)CCCCN)C(=O)N[C@@H](Cc1ccccc1)C(=O)N[C@@H](CC(C)C)C(=O)NCc1ccccc1` [Compound 84, [N-Aminopentanoyl, Ser^3(Octyl)]-Ghrelin (3-5)-benzylamide], the EC50 was found to be 98 nM.
For the compound `CCCCCCCC(=O)OC[C@H](NC(=O)[C@H](CO)NC(=O)CN)C(=O)N[C@@H](Cc1ccccc1)C(=O)O` [Compound 33-1, Ghrelin (1-4)] (H-GSS(Octanoyl)F-OH), the EC50 was 480 nM.
Regarding `CCCCCCCC(=O)OC[C@H](NC(=O)CNC(=O)CN)C(=O)N[C@@H](Cc1ccccc1)C(=O)N[C@@H](CC(C)C)C(=O)N[C@@H](CO)C(=O)N1CCC[C@H]1C(N)=O` [Compound 47, [Gly^2]-Ghrelin (1-7)-amide] (H-GGS(Octanoyl)FLSP-NH2), the EC50 stood at 78 nM.
The same measure, in the same setting: under `CCCCCCCC(=O)OC[C@H](NC(=O)[C@H](CO)NC(=O)CN)C(=O)N[C@@H](Cc1ccccc1)C(=O)N[C@@H](CC(C)C)C(=O)N[C@@H](CO)C(=O)N1CCC[C@H]1C(=O)N[C@@H](CCC(=O)O)C(=O)N[C@@H](Cc1c[nH]cn1)C(=O)N[C@@H](CCC(N)=O)C(=O)N[C@@H](CCCCN)C(=O)N[C@@H](C)C(=O)N[C@@H](CCC(N)=O)C(=O)N[C@@H](CCC(N)=O)C(=O)N[C@@H](CCCNC(=N)N)C(=O)O` [Compound 21, rGhrelin (1-15)] stands 8.6 nM.
For `CCCCCCCCOC[C@@H](NC(=O)[C@H](Cc1c[nH]cn1)NC(=O)C(C)(C)N)C(=O)N[C@H](Cc1ccccc1)C(=O)N[C@@H](CCCCN)C(N)=O` [Compound 79, [Aib^1, His^2, ^DSer^3(Octyl), ^DPhe^4, Lys^5]-Ghrelin (1-5)-amide] (H-[Aib]H[dS](Octyl)[dF]K-NH2), the EC50 was found to be 38 nM.
Same read-out and setting: the result for `CCCCCCCC(=O)OC[C@H](NC(=O)[C@H](CO)NC(=O)CN)C(=O)N[C@@H](Cc1ccccc1)C(=O)N[C@@H](CC(C)C)C(=O)N[C@@H](CCCCN)C(N)=O` [Compound 37, [Lys^6]-Ghrelin (1-6)-amide] (H-GSS(Octanoyl)FLK-NH2) reads 12 nM; that for `CC(=O)OC[C@H](NC(=O)[C@H](CO)NC(=O)CN)C(=O)N[C@@H](Cc1ccccc1)C(=O)N[C@@H](CC(C)C)C(=O)N[C@@H](CO)C(=O)N1CCC[C@H]1C(=O)N[C@@H](CCC(=O)O)C(=O)N[C@@H](Cc1c[nH]cn1)C(=O)N[C@@H](CCC(N)=O)C(=O)N[C@@H](CCCCN)C(=O)N[C@@H](C)C(=O)N[C@@H](CCC(N)=O)C(=O)N[C@@H](CCC(N)=O)C(=O)N[C@@H](CCCNC(=N)N)C(=O)N[C@@H](CCCCN)C(=O)N[C@@H](CCC(=O)O)C(=O)N[C@@H](CO)C(=O)N[C@@H](CCCCN)C(=O)N[C@@H](CCCCN)C(=O)N1CCC[C@H]1C(=O)N1CCC[C@H]1C(=O)N[C@@H](C)C(=O)N[C@@H](CCCCN)C(=O)N[C@@H](CC(C)C)C(=O)N[C@@H](CCC(N)=O)C(=O)N1CCC[C@H]1C(=O)N[C@@H](CCCNC(=N)N)C(=O)O` [Compound 8, [Ser^3(Acetyl)]-rGhrelin], 780 nM; that for `CCCCCCCSSC[C@H](NC(=O)[C@H](CO)NC(=O)CN)C(=O)N[C@@H](Cc1ccccc1)C(=O)N[C@@H](CC(C)C)C(=O)N[C@@H](CO)C(=O)N1CCC[C@H]1C(=O)N[C@@H](CCC(=O)O)C(=O)N[C@@H](Cc1c[nH]cn1)C(=O)N[C@@H](CCC(N)=O)C(=O)N[C@@H](CCCNC(=N)N)C(=O)N[C@H](C(=O)N[C@@H](CCC(N)=O)C(=O)N[C@@H](CCC(N)=O)C(=O)N[C@@H](CCCNC(=N)N)C(=O)N[C@@H](CCCCN)C(=O)N[C@@H](CCC(=O)O)C(=O)N[C@@H](CO)C(=O)N[C@@H](CCCCN)C(=O)N[C@@H](CCCCN)C(=O)N1CCC[C@H]1C(=O)N1CCC[C@H]1C(=O)N[C@@H](C)C(=O)N[C@@H](CCCCN)C(=O)N[C@@H](CC(C)C)C(=O)N[C@@H](CCC(N)=O)C(=O)N1CCC[C@H]1C(=O)N[C@@H](CCCNC(=N)N)C(=O)O)C(C)C` [Compound 57], 1.4 nM.
Turning to `CCCCCCCC(=O)OC[C@H](NC(=O)[C@H](CO)NC(=O)CN)C(=O)N[C@@H](Cc1ccccc1)C(N)=O` [Compound 33-2, Ghrelin (1-4)-amide] (H-GSS(Octanoyl)F-NH2), the EC50 was found to be 160 nM.
For the compound `CCCCCCCC(=O)OC[C@H](NC(=O)[C@H](CO)NC(=O)CN)C(=O)N[C@H](Cc1ccccc1)C(=O)N[C@@H](CCCCN)C(N)=O` [Compound 39, [^DPhe^4, Lys^5]-Ghrelin (1-5)-amide] (H-GSS(Octanoyl)[dF]K-NH2), the EC50 was found to be 1700 nM.
For `CCCCCCCC(=O)OC[C@H](NC(=O)[C@H](CO)NC(=O)CN)C(=O)N[C@@H](Cc1ccccc1)C(=O)N[C@@H](CC(C)C)C(=O)N[C@@H](CO)C(=O)N1CCC[C@H]1C(=O)N[C@@H](CCC(=O)O)C(=O)N[C@@H](Cc1c[nH]cn1)C(=O)O` [Compound 26, Ghrelin (1-9)] (H-GSS(Octanoyl)FLSPEH-OH), the EC50 worked out at 38 nM.
Consider `CCCC[C@H](NC(=O)[C@H](CO)NC(=O)CN)C(=O)N[C@@H](Cc1ccccc1)C(=O)N[C@@H](CC(C)C)C(=O)N[C@@H](CO)C(=O)N1CCC[C@H]1C(=O)N[C@@H](CCC(=O)O)C(=O)N[C@@H](Cc1c[nH]cn1)C(=O)N[C@@H](CCC(N)=O)C(=O)N[C@@H](CCCNC(=N)N)C(=O)N[C@H](C(=O)N[C@@H](CCC(N)=O)C(=O)N[C@@H](CCC(N)=O)C(=O)N[C@@H](CCCNC(=N)N)C(=O)N[C@@H](CCCCN)C(=O)N[C@@H](CCC(=O)O)C(=O)N[C@@H](CO)C(=O)N[C@@H](CCCCN)C(=O)N[C@@H](CCCCN)C(=O)N1CCC[C@H]1C(=O)N1CCC[C@H]1C(=O)N[C@@H](C)C(=O)N[C@@H](CCCCN)C(=O)N[C@@H](CC(C)C)C(=O)N[C@@H](CCC(N)=O)C(=O)N1CCC[C@H]1C(=O)N[C@@H](CCCNC(=N)N)C(=O)O)C(C)C` [Compound 73, [Nle^3]-hGhrelin], for which the EC50 turned out to be 2800 nM.
Take `CCCCCCCC(=O)OC[C@H](NC(=O)[C@H](CO)NC(=O)CN)C(=O)N[C@@H](Cc1ccccc1)C(=O)N[C@@H](CC(C)C)C(=O)N[C@@H](CO)C(=O)N1CCC[C@H]1C(N)=O` [Compound 29, Ghrelin (1-7)-amide]: the EC50 turned out to be 2.6 nM.

A word on the EC50: it is the concentration at which the effect is half-maximal.
